Test results: US11624095B2, “Method of quantifying HIV reservoirs by induced transcription based sequencing” (priority 2017, dated 2023)

Experiments:
[1] = tested on: HIV in purified CD4+ T-cells from HIV-1-infected men and women; assay: modified EDITS assay quantifying spreading viral infection (HIV RNA+ cells after Con A stimulation); format: cell-based; conditions: for spreading infection / HIV RNA induction: 300 pg/ml 17β-estradiol, 9 days; for spreading infection: absence of raltegravir, women compared to men (p=0.00052); for HIV RNA induction: women compared to men (p=0.00039); for number of HIV RNA positive cells per million: CD4+ memory cells stimulated 9 days with Con A in presence of 1 μM raltegravir
From the text: It is contemplated that the quantification of the latent HIV-1 can occur before, during, and after the course of a therapeutic regimen in order to determine the efficacy of a chosen therapeutic regimen. One way to assess the efficacy of the HIV-1 therapeutic is to compare the latent HIV-1 reactivation pre and post therapeutic administration. The amount of cell associated inducible HIV env RNA measured in the sample can then be compared to a control to determine the efficacy of the antiviral and/or LRAs. The control can be the amount of cell associated inducible HIV env RNA measured in infected cells prior to the administration of the one or more antiviral and/or latency reversing agents. In order to evaluate sex differences in CD4+ T-cells from male and female subjects, methods described herein can be modified to include an additional in vitro step allowing for the quantification of spreading viral infections in the presence of candidate agents. Therefore, in optional embodiments, purified CD4+ T-cells are stimulated with an HIV transcription inducing agent in the absence or presence of an antiretroviral agent to block spreading of HIV infection and a candidate agent. The amount of newly infected cells can be determined by measuring the increase in HIV RNA+ cells in the absence of the infection blocking agent compared to cells stimulated in the presence of the infection blocking agent.
The number of newly infected cells was determined, in accordance with the methods described herein, by measuring the HIV RNA+ cells in the absence of raltegravir after nine days. It was shown that the addition of 17β-estradiol blocked both HIV RNA induction and spreading infection in women compared to men, consistent with previous observations that the estrogen receptor-1 (ESR-1) can act as a repressor of HIV transcription.
CD4^+ T-cells were isolated from cryopreserved PBMCs and the frequencies of cells harboring total and integrated HIV-1 DNA (tHIV and iHIV) were measured relative to CD3 copy number. Cell associated (CA) unspliced (usHIV) RNA was quantified and multiply-spliced (msRNA) was measured using the identical semi-nested PCR with different primers. Low level viremia was quantified from seven milliliters of plasma with PCR amplification targeting a conserved, untranslated HIV-1 gag RNA sequence (the HMMCgag assay). Inducible HIV-1 RNA was measured using the TILDA assay; briefly, purified CD4^+ T-cells are stimulated maximally with PMA/ionomycin, serially diluted, lysed and HIV-1 msRNA measured with a two-step RT-PCR. Maximum likelihood estimates based on the number of positive wells are used to determine the frequency of cells harboring inducible HIV-1. A modified version of the EDITS assay was used to quantify spreading viral infections. Purified CD4^+ T-cells were stimulated with the mitogen Concanavalin A (Con A) in the absence or presence of 1 μM Raltegravir (to block spreading infection) and absence or presence of 300 pg/ml 17β-estradiol. Newly infected cells were determined after nine days as the increase in HIV RNA+ cells in the absence of Raltegravir.
As a complementary method to evaluate sex differences CD4^+ T-cells from a subset of men (n=6) and women (n=6) who underwent leukapheresis were evaluated for the level of inducible replication competent virus using a modified EDITS assay (FIG. 10). Purified CD4^+ memory cells were stimulated for 9 days to induce HIV transcription in the presence or absence of raltegravir and number of HIV RNA^+ cells was quantified by EDITS. […] In the absence of raltegravir, there were 348 RNA positive cells per million for the women and 457 RNA positive cells per million for the men, indicating spreading infection.

[2] = tested on: latent HIV proviruses in memory CD4+ T-cells of HIV-1-infected subjects; assay: EDITS assay, inducible HIV env RNA in resting memory cells after ex vivo activation; format: cell-based
From the text: We developed a novel deep sequencing-based protocol (EDITS, Envelope Detection by Induced Transcription-based Sequencing) to measure RNA induction, capable of detecting inducible cell-associated HIV RNA. The EDITS Assay measures inducible HIV envelope RNA in infected cells, including patient-derived samples. The HIV envelope mRNA has been chosen because the splicing pattern covers a significant portion of the proviral genome, thus minimizing readouts from defective proviruses with large deletions (FIG. 1). Briefly, 1.25×10^6 resting memory cells from aviremic (<20 copies/ml) HIV-1-infected subjects are induced by one or more latency reversing agents (LRAs) and/or by engagement of the T-cell receptor (TCR).
FIG. 6 summarizes the protocol of the EDITS assay. Briefly, blood is collected from an HIV-infected individual and peripheral blood mononuclear cells (PBMCs) are purified. CD4^+ memory cells are negatively isolated using robotic magnetic bead isolation technology (Stemcell, 19157RF) and allowed to equilibrate in RPMI with 10% FBS, Primocin and 30 IU/ml of IL-2 overnight. 1.25 million cells are stimulated with one or more LRA (e.g., Concanavalin A) for 24 hours. […]
Fastq files are analyzed using a proprietary pipeline (bioinformatics tool) to not only quantify the amount of HIV-1 present in any given sample but also to determine viral diversity.

[3] = Con A stimulation, listed as estrogen

Molecule: C[C@]12CC[C@@H]3c4ccc(O)cc4CC[C@H]3[C@@H]1CC[C@@H]2O [17β-estradiol]
- spreading infection ([1]; Con A stimulation): potently blocked
- spreading infection [1, 3]: potently blocked
- HIV RNA induction ([1]; Con A stimulation): potently blocked
- HIV RNA induction [1, 3]: potently blocked
- proviral reactivation ([2]; samples activated ex vivo by TCR induction in presence and absence of Estradiol (FIG. 4)): potent inhibitor of proviral reactivation

Molecule: Cc1nnc(C(=O)NC(C)(C)c2nc(C(=O)NCc3ccc(F)cc3)c(O)c(=O)n2C)o1 [raltegravir]
- viral spread ([1]; 1 μM raltegravir, 9 days culture, Con A stimulation): blocked
- number of HIV RNA positive cells per million ([1]; men (n=6)): 80 RNA positive cells per million
- number of HIV RNA positive cells per million ([1]; women (n=6)): 74 RNA positive cells per million

Molecule: Concanavalin A
- efficiency of activation of RNA from proviruses ([2]; strong LRAs such as TCR activation or mitogen activation, applicant's estimate): greater than 75%
